{"source": "patent US10172994B2", "about": "“Hemodiafiltration method” (Fresenius Medical Care Deutschland GmbH, priority 2012, dated 2019)", "biological_target": "bovine serum albumin (Bos taurus, UniProt P02769)", "sequence (P02769 25-607)": "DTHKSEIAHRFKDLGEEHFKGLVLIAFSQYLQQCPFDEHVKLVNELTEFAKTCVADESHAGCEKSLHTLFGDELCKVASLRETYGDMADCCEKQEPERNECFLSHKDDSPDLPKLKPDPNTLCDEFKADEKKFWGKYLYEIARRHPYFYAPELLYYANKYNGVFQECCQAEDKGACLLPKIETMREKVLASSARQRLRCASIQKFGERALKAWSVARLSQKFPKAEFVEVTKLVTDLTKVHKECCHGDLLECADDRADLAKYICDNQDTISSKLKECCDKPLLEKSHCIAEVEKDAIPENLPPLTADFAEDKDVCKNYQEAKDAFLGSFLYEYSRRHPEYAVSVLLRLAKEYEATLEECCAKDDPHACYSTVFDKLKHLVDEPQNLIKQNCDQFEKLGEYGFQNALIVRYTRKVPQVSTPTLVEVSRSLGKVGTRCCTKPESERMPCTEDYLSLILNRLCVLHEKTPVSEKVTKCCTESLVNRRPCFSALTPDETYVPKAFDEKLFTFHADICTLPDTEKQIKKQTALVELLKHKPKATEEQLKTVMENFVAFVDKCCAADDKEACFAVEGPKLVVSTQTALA", "assay": "HF field effect 1 to 170 MHz on separation of phenylacetic acid from BSA solution in dialysis module (HPLC)", "format": "in vitro ADME", "conditions": "BSA 60 mg/ml, 1 mmol/l toxin", "procedure": "Examination of the HF field effect in the frequency range 1 to 170 MHz.\nThe HF field was varied in subbands of 10 MHz in the frequency range 1-170 MHz and was compared with a control experiment without an HF field.\nThe quantitative determination of the phenylacetic acid was performed using HPLC.\nThe results of the experiments are collected in FIG. 4. […] The effect was particularly pronounced at 54.6% in the subband from 110 to 120 MHz."}
{"smiles": "O=C(O)Cc1ccccc1", "note": "[phenylacetic acid]", "values": [{"measurement": "increase of separation rate under the influence of the HF field", "setting": "HF field 1-170 MHz in subbands of 10 MHz vs control without HF field", "value": "at least 45.3%"}, {"measurement": "increase of separation rate under the influence of the HF field", "setting": "subband from 110 to 120 MHz vs control without HF field", "value": 54.6, "unit": "%"}]}
